Measurements: patent US20150315241A1, “Antibiotic Peptides” (priority 2007, published 2015)
Where no end group is shown, it is not given here.

What was measured:
M. luteus ATCC 10240 = assay type: cell-based, Micrococcus luteus; conditions: ATCC 10240, 20 h
Procedure, shortened: (§1)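 Bacteria grown overnight in NB at 37° C. were adjusted to 5×10^6 CFU/mL in 1% TSB and mixed 1:1 with a two-fold peptide series (final 125 μg/mL–60 ng/mL). After 20 hrs at 37° C., A595 was read; triplicates.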

Mycobacterium vaccae = assay type: cell-based; conditions: 20 h
Procedure: The minimal inhibition concentrations (MIC) of the apidaecin-derived peptides and peptide-derivatives were determined by a growth inhibition assay using a serial peptide dilution in sterilized round-bottom 96-well plates (polystyrene, U-bottom, Greiner Bio-One GmbH) with a final volume of 100 μL per well. The bacteria, e.g., E. coli BL21 A1, were grown in nutrient broth (NB, Carl Roth GmbH+Co. KG, Karlsruhe, Germany) at 37° C. over night. To each well of the 96-well plate, 50 μL of the overnight culture adjusted to 5×10^6 CFU/mL in 1% TSB were added. Lyophilized peptides and peptidomimetics were dissolved in 1% TSB (tryptic soy broth) or water to give a final concentration of 250 μg/mL. Fifty μL of the peptide or peptidomimetics solution were added to the first well of a row on the plate and mixed. Fifty μL of the first well containing the peptide solution were transferred to the second well, mixed and again 50 μL transferred to the next well and so on. Thereby, a two-fold dilution series was obtained starting at 250 μg/mL in the first well down to 120 ng/mL in the 12th well of a row giving a final peptide or peptidomimetics concentration from 125 μg/mL (well 1) to 60 ng/mL (well 12). Plates were incubated at 37° C. for 20 hrs. The absorbance was measured at 595 nm using a TECAN micro plate spectrophotometer (Tecan, Germany). All peptides and peptidomimetics were measured in triplicates. Sterilized water was used as a negative control.
The bacteria strains were tested: • Eschericha coli 1103, 10233, BL 21 AI, DC 2, • Klebsiella pneumoniae 681, • Micrococcus luteus ATCC 10240, • Mycobacterium vaccae • Bactillus subtillis 347.

E. coli DC 2 = assay: Growth inhibition assay (MIC); assay type: cell-based, Escherichia coli; conditions: 1% TSB, 37° C., 20 hrs
Procedure, shortened: as §1

E. coli BL 21 AI = assay: Growth inhibition assay (MIC); assay type: cell-based, Escherichia coli; conditions: 1% TSB, 37° C., 20 hrs
Procedure, shortened: as §1

B. subtilis 347 = assay type: cell-based, Bactillus subtillis; conditions: 347, 20 h
Procedure, shortened: as §1

E. coli 1103 = assay type: cell-based, Escherichia coli; conditions: 1103, 20 h
Procedure, shortened: as §1

K. pneumonia 681 = assay type: cell-based, Klebsiella pneumoniae; conditions: 20 h
Procedure, shortened: as §1

[1] = test system: R. radiobatter ATCC 15955; assay: Growth inhibition assay (MIC); assay type: cell-based, Rhizobium radiobacter; conditions: multidrug resistant strain; 1% TSB, 37° C., 20 hrs
Procedure, shortened: (§2)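 Bacteria grown overnight in nutrient broth at 37° C were diluted to 5×10^6 CFU/mL in 1% TSB and exposed to peptides serially halved from 125 μg/mL to 60 ng/mL final. After 20 h at 37° C, A595 gave the MIC, measured in triplicate.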

E. coli D31 = assay type: cell-based, Escherichia coli; conditions: D31, 20 h
Procedure, shortened: as §2

K. Pneumonia 123132 = assay: Growth inhibition assay (MIC); assay type: cell-based, Klebsiella pneumoniae; conditions: multidrug resistant strain; 1% TSB, 37° C., 20 hrs
Procedure, shortened: as §2

[2] = test system: K. Pneumonia K6, ATCC 700603; assay: Growth inhibition assay (MIC); assay type: cell-based, Klebsiella pneumoniae; conditions: multidrug resistant strain; 1% TSB, 37° C., 20 hrs
Procedure, shortened: as §2

E. coli 45849 = assay: Growth inhibition assay (MIC); assay type: cell-based, Escherichia coli; conditions: multidrug resistant strain; 1% TSB, 37° C., 20 hrs
Procedure, shortened: as §2

[3] = test system: S. enterica subsp. Enterica serovar. typhi G10215 ATCC 700408; assay type: cell-based, Salmonella enterica; conditions: ATCC 700408, 20 h
Procedure, shortened: as §2

S. typhi S5 = assay type: cell-based, Salmonella typhi; conditions: S5, 20 h
Procedure, shortened: as §2

| Substance | MIC M. luteus ATCC 10240 (M. luteus ATCC 10240) | MIC Mycobacterium vaccae (Mycobacterium vaccae) | MIC E. coli DC 2 (E. coli DC 2) | MIC E. coli BL 21 AI (E. coli BL 21 AI) | MIC B. subtilis 347 (B. subtilis 347) | MIC E. coli 1103 (E. coli 1103) | MIC K. pneumonia 681 (K. pneumonia 681) | MIC R. radiobatter ATCC 15955 [1] | MIC E. coli D31 (E. coli D31) | MIC K. Pneumonia 123132 (K. Pneumonia 123132) | MIC K. Pneumonia K6, ATCC 700603 [2] | MIC E. coli 45849 (E. coli 45849) | MIC S. enterica subsp. Enterica serovar. typhi G10215 ATCC 700408 [3] | MIC S. typhi S5 (S. typhi S5) |
| --- | --- | --- | --- | --- | --- | --- | --- | --- | --- | --- | --- | --- | --- | --- |
| Ac-GNNRPVYIPRPRPPHPRL-NH2 [compound 67] | 1.95 µg/mL | 125 µg/mL | 3.9 µg/mL | 3.91 µg/mL | 125 µg/mL | 3.9 µg/mL | 3.9 µg/mL | – | – | – | – | – | – | – |
| GNNRPVYIPKPRPPHPRI-NH2 [compound 17] | 0.98 µg/mL | – | 31.25 µg/mL | 0.98 µg/mL | – | 1.95 µg/mL | 31.25 µg/mL | 0.65 µg/mL | 32 µg/mL | 16 µg/mL | 32 µg/mL | 8 µg/mL | 4 to 8 µg/mL | 16 µg/mL |
| H-GNNKPVYIPRPRPPHPRLV-NH2 [compound 68] | 0.24 µg/mL | 125 µg/mL | 7.81 µg/mL | 7.81 µg/mL | >125 µg/mL | 3.9 µg/mL | 31.25 µg/mL | – | – | – | – | – | – | – |
| H-GNNRPVYIPRPRPPHPRL-NH2 [compound 66] | 1.95 µg/mL | 125 µg/mL | 1.95 µg/mL | 1.95 µg/mL | 62.5 µg/mL | 3.9 µg/mL | 3.9 µg/mL | – | – | – | – | – | – | – |
| H-GNNRPVYLPQPRPPHPRI-NH2 [compound 26] | 1.95 µg/mL | – | 7.81 µg/mL | 3.91 µg/mL | – | 3.91 µg/mL | 15.62 µg/mL | 2.6 µg/mL | >128 µg/mL | 32 µg/mL | 128 µg/mL | 16 µg/mL | 4 µg/mL | 32 µg/mL |
